Values belong to the compound of their own block, whether it stands above or below them.
Experiments:
calcitonin receptor [1] = biological target: T1, calcitonin receptor (Rattus norvegicus, UniProt P32214); assay: binding to the calcitonin receptor (125I-salmon calcitonin displacement, rat renal plasma membrane); parameters: species or system rat (Sprague-Dawley)
T1 construct: Kidneys were removed and placed in ice cold saline; from tissue; host or cells: Sprague-Dawley rat kidney, renal plasma membrane
T1 sequence (P32214 25-479 isoform P32214-2 limits assumed): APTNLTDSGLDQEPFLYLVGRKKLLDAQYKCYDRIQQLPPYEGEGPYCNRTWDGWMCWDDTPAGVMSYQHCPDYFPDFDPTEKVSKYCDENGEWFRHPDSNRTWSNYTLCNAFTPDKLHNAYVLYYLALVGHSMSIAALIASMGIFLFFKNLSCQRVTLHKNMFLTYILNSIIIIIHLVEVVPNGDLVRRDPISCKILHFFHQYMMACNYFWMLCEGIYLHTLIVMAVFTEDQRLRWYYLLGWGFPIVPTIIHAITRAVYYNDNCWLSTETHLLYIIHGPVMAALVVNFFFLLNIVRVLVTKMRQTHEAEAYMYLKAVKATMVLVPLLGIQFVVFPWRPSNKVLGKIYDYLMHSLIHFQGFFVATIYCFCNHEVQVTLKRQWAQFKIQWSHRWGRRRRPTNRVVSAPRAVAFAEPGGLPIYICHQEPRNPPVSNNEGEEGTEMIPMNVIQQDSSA
Procedure: The first in vitro standard pharmacological test procedure measures the ability of the compound to be evaluated to bind to the calcitonin receptor. The following describes the procedure used and the results obtained.
Adult female or male Sprague-Dawley rats (250-350 gm), were euthanized by CO2 asphyxiation. Kidneys were removed and placed in ice cold saline; all subsequent procedures were carded out at 4° C. Kidneys were decapsulated and coarsely minced with scissors. […]
Samples were incubated for 1 hour at room temperature. […] The filters were counted for a period of 2 minutes per sample utilizing an LKB Betaplate Reader.

calcitonin receptor [2] = biological target: T2, calcitonin receptor (Homo sapiens, UniProt P30988); assay: calcitonin agonist test: cAMP generation in T-47D cells; type: cell-based; conditions: for cAMP: basal 1
T2 construct: host or cells: T-47D
T2 sequence (P30988 25-474): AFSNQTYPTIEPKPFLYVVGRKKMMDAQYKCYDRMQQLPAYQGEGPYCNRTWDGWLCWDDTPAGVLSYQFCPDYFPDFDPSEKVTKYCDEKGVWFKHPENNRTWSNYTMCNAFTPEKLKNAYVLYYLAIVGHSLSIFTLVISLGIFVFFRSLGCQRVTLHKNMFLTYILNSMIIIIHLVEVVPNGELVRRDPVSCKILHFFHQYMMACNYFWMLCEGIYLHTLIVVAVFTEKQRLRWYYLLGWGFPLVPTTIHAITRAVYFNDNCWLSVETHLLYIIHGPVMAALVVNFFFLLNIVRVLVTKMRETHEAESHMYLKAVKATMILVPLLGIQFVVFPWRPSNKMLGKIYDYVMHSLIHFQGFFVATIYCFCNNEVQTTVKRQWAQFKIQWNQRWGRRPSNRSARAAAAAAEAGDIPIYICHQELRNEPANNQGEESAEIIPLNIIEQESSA
Description: The second in vitro standard pharmacological test procedure determines the ability of the compound to be evaluated to act as a calcitonin agonist, by measuring the levels of cAMP produced in response to the test compound. The following briefly describes the procedure used and the results obtained.
cAMP was generated in T-47D cells (a human mammary carcinoma cell line available from the American Type Culture Collection, Rockville, Md., USA) according to the following procedure. […] After the incubation was completed, the growth medium was aspirated from the cells in the plate.
Fifty ul of antiserum was added to all wells with the exception of the non-specific binding wells (NSB). Fifty ul of the SPA anti-rabbit reagent was added to all wells.
Intracellular cAMP levels in the T-47D cells following salmon calcitonin stimulation for 10 rain at 37° C. are as follow: […]

osteoclasts = assay: inhibition of bone resorption by osteoclasts (pits excavated per bone slice); type: cell-based; conditions: Osteoclast, neonatal rat osteoclasts on bovine cortical bone slices, 24 h
Procedure: Briefly, osteoclasts were isolated from neonatal rat long bones by mincing the bones in Medium 199 containing Hank's salts (3 ml per 10 bones from each of 5 animals). Osteoclasts were dislodged from the bone fragments by aspirating the bone fragments 50 times into and out of a transfer pipette. 100 μl of the resulting cell suspension from each animal was then plated onto each of 3 (per dose) 4.4 mm^2 slices of devitalized bovine femoral cortical bone that had been placed in the wells of a 96 well plate and pre-wetted with 100 μl of the medium. The osteoclasts were then allowed to adhere for 25 minutes at 37° C. The slices, with adherent osteoclasts, were then rinsed in 5 ml of medium to remove non-adherent cells. The slices were then transferred to Medium 199 containing Earle's salts with only 0.7 g/L NaHCO3 (to ensure that the medium equilibrates to a pH of 6.8-7.1 in a 5% CO2 atmosphere) and 10% heat-inactivated fetal bovine serum. […] The excavations (pits) made by the osteoclasts in the surface of the bone were visualized by staining with 1% toluidine blue for 3 minutes and bone resorption quantified microscopically by counting the number of pits excavated per slice.

[3] = effect on serum calcium levels in young growing rats; type: in vivo, rat; parameters: Serum Calcium: unit not given here; conditions: for Serum Calcium: mean
Procedure: {5R*-[6R*, 7S*, 8R*, 9R*, 12S*, 16S*, 18S*, 19S*, (13E)]} 4, 7, 19-Trihydroxy-2, 6, 8, 12, 12, 14, 16, 18-heptamethyl-6, 7, 8, 9, 10, 11, 12, 15, 16, 17, 18, 19-dodecahydro-1, 19:5, 9-diepoxybenzocyclooctadecen-3(5H)-one was also evaluated in an in vivo standard pharmacological test procedure that measures the effect of the test compound on serum calcium levels. Agents that inhibit bone resorption, such as calcitonin, regulate circulating calcium levels by inhibiting osteoclast mediated osteolysis and thereby inhibit the release of calcium from bone. The decrease in serum calcium levels following drug treatment indicates bone sparing activity. Calcitonin acts on specific membrane receptors of the bone resorbing osteoclast cells eliciting second messenger events such as increased cAMP generation that leads to inhibition of the cell's motility and inhibition of its bone resorbing functional activity. If bone turnover activity is high, such as in the young growing rat, this rapid inhibition in bone resorption is reflected by a transient decrease in circulating calcium. […] Young adult male rats weighing 160-170 g were held for at least 72 hours after receipt to acclimatize to colony conditions and then were randomly assigned to groups of 5-7 rats/group for treatment. The rats were administered vehicle or test compound, and at intervals between 0.5 and 3 hours after dosing, 1.0 ml of blood was collected from each rat under ketamin/acepromazine anesthesia via tail artery or (terminal via) cardiac puncture. Serum was evaluated for total calcium using a NOVA 7+7 blood analyzer.
In this standard pharmacological test procedure, all animals were dosed at 0 hours. For animals treated with the compound of Formula I, animals were bled sequentially. For animals treated with salmon calcitonin and untreated normal animals, a different group was used at each time point.

inhibition of the binding of calcitonin to the calcitonin receptor (in words) (calcitonin receptor [1]): competitively inhibited | IC50 (calcitonin receptor [1]; 1 hour at room temperature): 20.5 µM | EC50 (calcitonin receptor [2]; 10 min at 37° C., 10 μM IBMX, read-out: EC50, cAMP production (converted)): 616 nM | calcitonin agonist activity (in words) (calcitonin receptor [2]; cAMP): potent calcitonin agonist | IC50 (osteoclasts): 0.8 µg/mL
Compound: CC1=C2O[C@]3(O)C=C2C(=C(O)C1=O)[C@@H]1O[C@H](CC[C@H](C)/C=C(\C)C[C@@H](C)C[C@@H]3C)[C@H](C)[C@H](O)[C@H]1C (relative stereo) [Formula I, {5R*-[6R*, 7S*, 8R*, 9R*, 12S*, 16S*, 18S*, 19S*, (13E)]} 4,7, 19-Trihydroxy-2,6,8, 12, 12, 14, 16, 18-heptamethyl-6,7,8,9, 10, 11, 12, 15, 16, 17, 18, 19-dodecahydro-1, 19:5,9-diepoxybenzocyclooctadecen-3(5H)-one]
Serum Calcium ([3]; 10 mg/kg, i.p., 0.5 hours, normals 10.92): 10.73 | Serum Calcium ([3]; 10 mg/kg, i.p., 1.5 hours, normals 10.88, p < 0.01): 10.21 | Serum Calcium ([3]; 10 mg/kg, i.p., 3.0 hours, normals 10.40, p < 0.01): 9.99 | Serum Calcium ([3]; 30 mg/kg, i.p., 0.5 hours, normals 10.92): 10.60 | Serum Calcium ([3]; 30 mg/kg, i.p., 1.5 hours, normals 10.88, p < 0.05): 10.43 | Serum Calcium ([3]; 30 mg/kg, i.p., 3.0 hours, normals 10.40): 10.18 | Serum Calcium ([3]; 100 mg/kg, i.p., 0.5 hours, normals 10.92, p < 0.01): 10.29 | Serum Calcium ([3]; 100 mg/kg, i.p., 1.5 hours, normals 10.88, p < 0.01): 10.19 | Serum Calcium ([3]; 100 mg/kg, i.p., 3.0 hours, normals 10.40, p < 0.05): 10.06 | reduction of serum calcium levels (in words) ([3]; young growing rats, summary statement): significantly reduced serum calcium levels

Compound: Salmon Calcitonin
cAMP (calcitonin receptor [2]; calcitonin 0.0001 nM, 10 min at 37° C.): 2 pmol/mL | cAMP (calcitonin receptor [2]; calcitonin 0.001 nM, 10 min at 37° C.): 13 pmol/mL | cAMP (calcitonin receptor [2]; calcitonin 0.01 nM, 10 min at 37° C.): 105 pmol/mL | cAMP (calcitonin receptor [2]; calcitonin 0.1 nM, 10 min at 37° C.): > 640 pmol/mL | Serum Calcium ([3]; 5 IU/rat, s.c., 0.5 hours, normals 10.92, p < 0.01): 8.17 | Serum Calcium ([3]; 5 IU/rat, s.c., 1.5 hours, normals 10.88, p < 0.01): 7.45 | Serum Calcium ([3]; 5 IU/rat, s.c., 3.0 hours, normals 10.40, p < 0.01): 6.65
